According to patent publication US9120762B2, “Salts of bicyclo-substituted pyrazolon azo derivatives, preparation method and use thereof” (Jiangsu Hengrui Medicine Co., Ltd., priority 2009, dated 2015):

What was measured:
human TPOR = biological target: T1, human TPOR (Homo sapiens, UniProt P40238); assay: Proliferation effect on BAF3-TPOR cell (CCK-8); assay type: cell-based; conditions: rate relative to rhTPO positive control
T1 construct: host or cells: BaF3 (murine pro-B cells), stably transfected, G418-selected
T1 sequence (P40238 26-635): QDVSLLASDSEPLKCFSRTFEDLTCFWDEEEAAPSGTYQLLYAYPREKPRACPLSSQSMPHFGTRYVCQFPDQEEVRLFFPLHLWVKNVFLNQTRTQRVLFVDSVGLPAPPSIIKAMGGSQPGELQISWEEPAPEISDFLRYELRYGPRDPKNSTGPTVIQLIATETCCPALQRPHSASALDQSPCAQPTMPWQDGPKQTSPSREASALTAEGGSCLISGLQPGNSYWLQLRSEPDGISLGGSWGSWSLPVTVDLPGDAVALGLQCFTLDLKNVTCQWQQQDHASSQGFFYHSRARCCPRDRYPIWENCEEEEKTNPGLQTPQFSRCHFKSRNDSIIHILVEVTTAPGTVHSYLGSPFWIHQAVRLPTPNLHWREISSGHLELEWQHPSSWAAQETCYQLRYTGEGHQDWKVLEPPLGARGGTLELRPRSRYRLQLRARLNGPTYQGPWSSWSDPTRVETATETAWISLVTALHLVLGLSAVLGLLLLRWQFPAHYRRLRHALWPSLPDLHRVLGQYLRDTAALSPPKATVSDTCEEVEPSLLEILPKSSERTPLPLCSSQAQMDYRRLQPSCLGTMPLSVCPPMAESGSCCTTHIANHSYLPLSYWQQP
Description: (1) Plasmid constructs: based on the TPO receptor (TPOR) sequence information from Entrez (Gene ID: 4325, Refseq: NM_005373), dual-site mutation was performed on EX-B0010-M02 plasmid by using QuikChange® Multi Site Directed Mutagenesis Kit (Stratagene). The sequence of primers containing multi-sites mutation was designed as follows: […]
The E. coli DH5α competent cells were transformed with mutated plasmid, and positive colonies were picked up through ampicillin selection. The mutation result was confirmed by sequence analysis.
(2) BAF3-TPOR stable transfected cell line: the following method was used to construct the BaF3 cell which stably over-expressed functional human TPOR. The successfully mutated EX-B0010-M02 plasmid ([…]) which expressed human TPOR and screening gene neomycin was transfected into wild-type BaF3 cells (1×10^7) by electroporation at 250V for 18 ms using an electric pulse generator (Electro Square Porator ECM830, BTX Division of Genetronic, Inc. US). The stable transfected cells BAF3-TPOR were selected with G418 (Gibco, US), then incubated in RPMI1640 medium plus 10% FBS (Gibco, US), […] G418, 5 ng/mL, rmIL-3 (Chemicon, US).
(1) Washing cells by centrifugation: a suitable amount of cell suspension was centrifuged at 1000 rpm for 5 minutes, and the supernatant was discarded. 10 mL of cell culture media without IL-3 was added. Then the resulting cell suspension was centrifuged at 1000 rpm for 5 minutes, and the supernatant was discarded.
(2) 1 mL of cell culture media without IL-3 was added to beat upon them to equality, and the number of a suitable amount of cell suspension was counted after dilution.
(3) According to the result of the cell counting, a cell suspension in a concentration of 100,000 cell/mL was prepared.
(4) 100 μL of cell suspension was transferred to each well of 96-well culture plate, and there were 3 parallel wells, that is, there were a blank control group (B), a negative control group (N), a positive control group of TPO (P) and a test compound group (S).
(5) The test compound was dissolved in DMSO to prepare a 10 mM stock solution, and then the solution was diluted with RPMI 1640 medium into a series of test samples at different concentration: 30 μM, 10 μM, 3 μM, 1 μM, 0.3 μM, 0.1 μM, 0.03 μM, 0.01 μM, 0.003 μM, 0.001 μM.
(6) 10 μL of test compound solution was transferred to each well respectively; 1 μL of rhTPO (10 ng/mL) was added to positive control well.
(7) The plates were incubated in an incubator at 5% CO2 and 37° C. for 24 hours.
(8) After incubation, 10 μL of CCK-8 solution was added to each well and the plates were incubated in the incubator for another 24 hours.
(9) OD value was detected at 450 nm by VICTORS (Perkin Elmer 1420-120) plate reader.
(1) The proliferation rate was calculated as follows: Rate=[(S−B)/(P−B)]*100%
S: OD value of wells which contain test compound.
B: OD value of blank control wells
P: OD value of positive control wells
(2) The EC50 value was calculated by Origin 7.0 software.

[1] = Pharmacokinetics assay in rats; assay type: in vivo, SD rats; conditions: SD rats, intragastric, 50 mg/Kg (as free acid), 50 mg/kg; for Vd/F / AUC / CL/F / half-life / MRT / Cmax / Tmax: both sexes, SD, rat, plasma, po; for Vd/F: read-out: Apparent Distribution Volume Vz/F; for AUC: read-out: Area Under Curve AUC; for CL/F: read-out: Clearance CL/F (converted); for half-life: read-out: Half-Life t½ (converted); for MRT: read-out: Mean Residence Time MRT; for Cmax: read-out: Plasma Conc. Cmax; for Tmax: read-out: Time to peak Tmax
Description: The compounds of the present disclosure were administrated intragastrically to rats to determine the drug concentration in plasma at different time points by HPLC-UV. The pharmacokinetic behavior of the compounds of the present disclosure was studied and evaluated in rats. […] Healthy adult SD rats, male and female in half, were purchased from SINO-BRITSH SIPPR/BK LAB.ANIMAL LTD., Colo., License number: SCXK (Shanghai) 2003-0002 The test compound was diluted with 1% sodium carboxymethyl cellulose to 5 mg/mL (calculated as the free acid form) of suspension before use. Healthy adult SD rats, male and female in half, were divided into 23 groups. […] The plasma samples were stored at −20° C. until analysis. The rats were fed 2 hours after administration. […] Then the mixture was mixed for 3 minute using a vortexer and centrifuged for 10 minutes at 13,500 rpm. 40 μL of the supernatant was analyzed by HPLC-UV. The compartmental model of pharmacokinetics was fitted for the test compounds and the major pharmacokinetic parameters were calculated in which Cmax and tmax were the actually measured values.

Row | SMILES | EC50 (human TPOR) [nM] | Area Under Curve AUC [1] [µg·h/mL] | Clearance CL/F [1] [mL/min/kg] | Half-Life t½ [1] [h] | Plasma Conc. Cmax [1] [ng/mL] | Time to peak Tmax [1] [h] | Vd/F [1] [L/kg] | AUC [1] [µg·h/mL] | CL/F [1] [mL/min/kg] | half-life [1] [h] | MRT [1] [h] | Cmax [1] [ng/mL] | Tmax [1] [h] | Mean Residence Time MRT [1] [h]
1 | CC1=NN(c2ccc3c(c2)CCCC3)C(=O)/C1=N\Nc1cccc(-c2ccc(C(=O)O)o2)c1O [Example 15, (Z)-5-(2-hydroxy-3-{N′-[3-methyl-5-oxo-1-(5,6,7,8-tetrahydro-naphthalen-2-yl)-1,5-dihydro-pyrazol-4-ylidene]-hydrazino}-phenyl)-furan-2-carboxylic acid bis-(L-arginine)] | 16 | 168 ± 118 | 12.6 ± 16.6 | 6.56 ± 3.80 | 23300 ± 13600 | 2.0 ± 1.16 |  |  |  |  |  |  |  | 
2 | CC1=NN(c2ccc3c(c2)CCCC3)C(=O)/C1=N\Nc1cccc(-c2ccc(C(=O)O)o2)c1O [Example 13, (Z)-5-(2-hydroxy-3-{N′-[3-methyl-5-oxo-1-(5,6,7,8-tetrahydro-naphthalen-2-yl)-1,5-dihydro-pyrazol-4-ylidene]-hydrazino}-phenyl)-furan-2-carboxylic acid bis-(dibenzylethylenediamine)] | 20 | 42.8 ± 33.2 | 27.2 ± 13.8 | 5.70 ± 2.50 | 8100 ± 3350 | 1.38 ± 1.11 |  |  |  |  |  |  |  | 
3 | CC1=NN(c2ccc3c(c2)CCCC3)C(=O)/C1=N\Nc1cccc(-c2coc(C(=O)O)c2)c1O.NCCO.NCCO [Example 22, (Z)-4-(2-Hydroxy-3-{N′-[3-methyl-5-oxo-1-(5,6,7,8-tetrahydro-naphthal-2-yl)-1,5-dihydro-pyrazol-4-ylidene]-hydrazino}-phenyl)-furan-2-carboxylic acid bis-(ethanolamine)] | 39 |  |  |  |  |  | 3.41 ± 1.75 | 603 ± 240 | 4 | 9.95 ± 0.6 | 14.8 ± 1 | 39800 ± 18200 | 5 ± 2 | 
4 | CC1=NN(c2ccc3c(c2)CCCC3)C(=O)/C1=N\Nc1cccc(-c2coc(C(=O)O)c2)c1O [Example 22f, (Z)-4-(2-hydroxy-3-{N′-[3-methyl-5-oxo-1-(5,6,7,8-tetrahydro-naphthal-2-yl)-1,5-dihydro-pyrazol-4-ylidene]-hydrazino}-phenyl)-furan-2-carboxylic acid] | 42 |  |  |  |  |  | 8.49 ± 2.16 | 151 ± 97 | 11.5 | 9.21 ± 1.57 | 11.8 ± 4.5 | 8730 ± 2580 | 4.25 ± 1.26 | 
5 | CC1=NN(c2ccc3c(c2)C(C)(C)CC3)C(=O)/C1=N\Nc1cccc(-c2ccc(C(=O)O)o2)c1O [Example 5, (Z)-5-(3-{N′-[1-(3,3-dimethyl-indan-5-yl)-3-methyl-5-oxo-1,5-dihydro-pyrazol-4-ylidene]-hydrazino}-2-hydroxy-phenyl)-furan-2-carboxylic acid bis-(diethylamine)] | 19 | 255 ± 95 | 3.67 ± 1.2 | 15.0 ± 6.2 | 19800 ± 3800 | 3.25 ± 1.5 |  |  |  |  |  |  |  | 20.8 ± 9.1
6 | CC1=NN(c2ccc3c(c2)CCCC3)C(=O)/C1=N\Nc1cccc(-c2ccc(C(=O)O)o2)c1O [Example 9, (Z)-5-(2-hydroxy-3-{N′-[3-methyl-5-oxo-1-(5,6,7,8-tetrahydro-naphthalen-2-yl)-1,5-dihydro-pyrazol-4-ylidene]-hydrazino}-phenyl)-furan-2-carboxylic acid bis-(diethylamine)] | 14 | 146 ± 69.7 | 6.52 ± 2.42 | 9.65 ± 2.48 | 21200 ± 10400 | 2.88 ± 2.59 |  |  |  |  |  |  |  | 
